From US7491849B2, “Oligoamine compounds and derivatives thereof for cancer therapy” (priority 2001, dated 2009) come the findings set out here.

The assay relates to PC-3 Cells. Nature of the assay: Colony forming assay (CFE), PC-3 cells. It is filed as cell-based. The conditions noted are these: ca. 1.5-2 μM, 5 days incubation, FIG. 2. Here is the method:
Assessment of Oligoamine Cytotoxicity by Colony Forming Assay. The cytotoxicity of the oligoamines was further assayed by the colony forming assay (CFE). Four saturated oligoamines were chosen for their ability to kill DuPro cells after 5 days of incubation. Oligoamines SL-11159, SL-11175 and SL-11226 had over 4 logs of cell kill on day 5 of treatment at 1-2 μM concentrations; see FIG. 1. […] The colony forming assay was performed as follows.
Colony Forming Efficiency Assay. All cell lines used in this assay have already been optimized with respect to the number of feeder cells and length of incubation time for observable colony formation. Cells were washed, harvested, and replated in quadruplicate at appropriate dilution into 60 mm plastic Petri dishes. The Petri dishes were prepared not more than 24 hr in advance with 4 ml of supplemented Eagle's minimum essential medium containing 5-10% fetal bovine serum (standardized for each cell line) for all cell lines. Cells were incubated for the previously standardized number of days in a 95% air/5% CO2 atmosphere. The plates were stained with 0.125% crystal violet in methanol and counted. Results are expressed as the surviving fraction of an appropriate control.

As to `CCNCCCCNCCCCNCCCCNCCCCNCCCCNCCCCNCCCCNCCCCNCCCCNCC.Cl.Cl.Cl.Cl.Cl.Cl.Cl.Cl.Cl.Cl` [SL-11159], the “logs of cells killed (colony survival)” value is listed as “four”.
